From ChEMBL document CHEMBL1817597, “Antifungal thiopeptide cyclothiazomycin B1 exhibits growth inhibition accompanying morphological changes via binding to fungal cell wall chitin” (Bioorg Med Chem, 2011)
≈ marks a conversion by molar mass, not a printed value. Calls of active or inactive are those of the source. The calls are words filed in the database; no cut-off is given here.

Assays:
[1] = system: Fusarium sporotrichioides; test: Antimicrobial activity against Fusarium sporotrichioides NBRC 33236 at <6.55 uM after 24 hrs by broth microdilution method; format: functional
Fusarium fujikuroi = test: Antimicrobial activity against Gibberella fujikuroi NBRC 6349 at <6.55 uM after 24 hrs by broth microdilution method; format: functional, organism-based
Fusarium oxysporum [2] = test: Antifungal activity against Fusarium oxysporum NBRC 5942 under hyperosmotic shock at 0.026 uM after 2 days by paper disc method; format: functional, organism-based
Aspergillus fumigatus = test: Antimicrobial activity against Aspergillus fumigatus IFO 5840 at <6.55 uM after 24 hrs by broth microdilution method; format: functional, organism-based
[3] = Binding affinity to chitosan at 6.55 uM after 30 mins by HPLC analysis
Candida albicans = test: Antimicrobial activity against Candida albicans IFO 1061 after 24 hrs by broth microdilution method; format: functional, organism-based
Fusarium solani [4] = test: Antimicrobial activity against Fusarium solani NBRC 8505 after 24 hrs by broth microdilution method; format: functional; details: NBRC 8505, 24 h
Aspergillus niger [5] = test: Antimicrobial activity against Aspergillus niger ATCC 6275 after 24 hrs by broth microdilution method; format: functional; details: ATCC 6275, 24 h
[6] = system: Schizosaccharomyces pombe; test: Antimicrobial activity against Schizosaccharomyces pombe IFO 0342 after 24 hrs by broth microdilution method; format: functional, organism-based
[7] = Binding affinity to chemically deacetylated chitin at 6.55 uM after 30 mins by HPLC analysis
NIH3T3 = test: Cytotoxicity against mouse NIH/3T3 cells up to 65.5 uM after 24 hrs by Alamar blue assay; format: cell-based; details: nih3t3, 24 h
Mucor mucedo [8] = test: Antimicrobial activity against Mucor mucedo IFO 7684 after 24 hrs by broth microdilution method in presence of 100 uM of PKA activator dbcAMP; format: functional; details: IFO 7684, 24 h
Bacillus licheniformis = test: Antimicrobial activity against Bacillus licheniformis IFO 12107 after 24 hrs by broth microdilution method; format: functional, organism-based
Rhizopus arrhizus = test: Antimicrobial activity against Rhizopus oryzae IFO 4766 at <6.55 uM after 24 hrs by broth microdilution method; format: functional, organism-based
Penicillium chrysogenum = test: Antimicrobial activity against Penicillium chrysogenum IFO 4626 after 24 hrs by broth microdilution method; format: functional; details: IFO 4626, 24 h
Staphylococcus aureus = test: Antimicrobial activity against Staphylococcus aureus IFO 12732 after 24 hrs by broth microdilution method; format: functional, organism-based
Fusarium graminearum [9] = test: Antimicrobial activity against Gibberella zeae NBRC 8850 at <6.55 uM after 24 hrs by broth microdilution method; format: functional, organism-based
Aspergillus niger [10] = test: Antimicrobial activity against Aspergillus niger ATCC 6275 at <6.55 uM after 24 hrs by broth microdilution method; format: functional, organism-based
Fusarium oxysporum [11] = test: Antifungal activity against Fusarium oxysporum NBRC 5942 under hypoosmotic shock assessed as increase of fragility of organism at 0.026 uM after 24 hrs measured after distilled water treatment for 10 mins by microscopic analysis; format: functional, organism-based
Fusarium oxysporum [12] = test: Binding affinity to cell wall polysaccharides in Fusarium oxysporum NBRC 5942 at 6.55 uM after 30 mins by HPLC analysis
Mucor mucedo [13] = test: Inhibition of chitin synthase in Mucor mucedo IFO 7684 assessed as incorporation of GlcNAc from [14C]-UDP-GlcNAc into acid-insoluble fractions at 4 ug/ml after 55 mins by liquid scintillation counting
Mucor mucedo [14] = test: Induction of morphological changes in Mucor mucedo IFO 7684 assessed as thickening of hyphae at MIC after 24 hrs by microscopic analysis; format: functional, organism-based
Mucor mucedo [15] = test: Inhibition of DNA synthesis in Mucor mucedo IFO 7684 assessed as [8-14C]-adenine uptake into acid-insoluble fractions at 0.13 uM after 25 mins by liquid scintillation counting; format: functional; details: IFO 7684, 25 min
Mucor mucedo [16] = test: Antifungal activity against Mucor mucedo IFO 7684 under hypoosmotic shock assessed as increase of fragility of organism at 0.026 uM after 24 hrs measured after distilled water treatment for 10 mins by microscopic analysis; format: functional, organism-based
Saccharomyces cerevisiae = test: Antimicrobial activity against Saccharomyces cerevisiae IFO 0203 after 24 hrs by broth microdilution method; format: functional, organism-based
Fusarium oxysporum [17] = test: Induction of morphological changes in Fusarium oxysporum NBRC 5942 assessed as thickening of hyphae at MIC after 24 hrs by microscopic analysis; format: functional, organism-based
Mucor mucedo [18] = test: Effect on cell wall re-generation in Mucor mucedo IFO 7684 spheroplasts under hyperosmotic condition at 0.026 uM after 18 hrs by microscopic analysis; format: functional
Mucor mucedo [19] = test: Induction of morphological changes in Mucor mucedo IFO 7684 assessed as thickening of hyphae at 0.026 uM after 24 hrs by microscopic analysis in presence of 100 uM of PKA activator dbcAMP; format: functional, organism-based
Mucor mucedo [20] = test: Induction of morphological changes in Mucor mucedo IFO 7684 assessed as abnormal hyphae branching at MIC after 24 hrs by microscopic analysis; format: functional, organism-based
Mucor mucedo [21] = test: Antifungal activity against Mucor mucedo IFO 7684 under hyperosmotic shock at 0.026 uM after 2 days by paper disc method; format: functional, organism-based
Micrococcus luteus = test: Antimicrobial activity against Micrococcus luteus IFO 3333 after 24 hrs by broth microdilution method; format: functional, organism-based
Mucor mucedo [22] = test: Antimicrobial activity against Mucor mucedo IFO 7684 after 24 hrs by broth microdilution method in presence of 100 uM of PKA inhibitor H8; format: functional; details: IFO 7684, 24 h
Pseudomonas aeruginosa = test: Antimicrobial activity against Pseudomonas aeruginosa IFO 3080 after 24 hrs by broth microdilution method; format: functional, organism-based
Mucor mucedo [23] = test: Inhibition of RNA synthesis in Mucor mucedo IFO 7684 assessed as [8-14C]-adenine uptake into acid-insoluble fractions at 0.13 uM after 25 mins by liquid scintillation counting; format: functional, organism-based
Fusarium solani [24] = test: Antimicrobial activity against Fusarium solani NBRC 5899 after 24 hrs by broth microdilution method; format: functional; details: NBRC 5899, 24 h
Fusarium graminearum [25] = test: Antimicrobial activity against Gibberella zeae NBRC 8850 after 24 hrs by broth microdilution method; format: functional; details: NBRC 8850, 24 h
[26] = Binding affinity to chitin at 6.55 uM after 30 mins by HPLC analysis
Aspergillus nidulans = test: Antimicrobial activity against Aspergillus nidulans FGSC A4 at <6.55 uM after 24 hrs by broth microdilution method; format: functional, organism-based
Mucor javanicus = test: Antimicrobial activity against Mucor javanicus IFO 4569 at <6.55 uM after 24 hrs by broth microdilution method; format: functional
Rhodotorula mucilaginosa = test: Antimicrobial activity against Rhodotorula mucilaginosa IFO 0001 after 24 hrs by broth microdilution method; format: functional, organism-based
Fusarium solani [27] = test: Antimicrobial activity against Fusarium solani NBRC 5899 at <6.55 uM after 24 hrs by broth microdilution method; format: functional, organism-based
HL-60 = test: Cytotoxicity against human HL60 cells up to 65.5 uM after 24 hrs by Alamar blue assay; format: cell-based; details: hl-60, 24 h
Escherichia coli = test: Antimicrobial activity against Escherichia coli IFO 3545 after 24 hrs by broth microdilution method; format: functional, organism-based
Proteus vulgaris = test: Antimicrobial activity against Proteus vulgaris IFO 3851 after 24 hrs by broth microdilution method; format: functional, organism-based
Mucor mucedo [28] = test: Binding affinity to cell wall polysaccharides in Mucor mucedo IFO 7684 at 6.55 uM after 30 mins by HPLC analysis

For `C=C1NC(=O)[C@H]2CSC(=N2)c2csc(n2)-c2ccc3c(n2)[C@H](C)NC(=O)[C@@H]2CCCN2C(=O)/C(=C/C)NC(=O)CNC(=O)[C@H](CCCNC(=N)N)NC(=O)C(C)(NC(=O)/C(=C/C)NC(=O)C2CSC(=N2)[C@H](CC(N)=O)NC3=O)SC[C@@H](C(=O)O)NC(=O)[C@H]2CSC(=N2)c2csc(n2)-c2csc1n2` [CYCLOTHIAZOMYCIN B1], the Activity [1] was “inactive”, the Activity (Fusarium fujikuroi) was “inactive” and the Activity (Fusarium oxysporum [2]) was “inactive”. For the same compound, the Activity (Aspergillus fumigatus) was “inactive”, the Activity [3] was “inactive” and the Activity (Candida albicans) was “inactive”. For the same compound, the MIC (Fusarium solani [4]) was 0.25 mg/L (≈ 0.164 µM), the MIC (Aspergillus niger [5]) was > 1000 mg/L and the Activity [6] was “inactive”. For the same compound, the Activity [7] was “inactive”, the Activity (NIH3T3) was “Non-toxic” and the MIC (Mucor mucedo [8]) was 0.013 µM. The Activity (Bacillus licheniformis) was “inactive”, the Activity (Rhizopus arrhizus) was “inactive” and the MIC (Penicillium chrysogenum) was 0.63 mg/L (≈ 0.412 µM). The Activity (Staphylococcus aureus) was “inactive”, the Activity (Fusarium graminearum [9]) was “inactive” and the Activity (Aspergillus niger [10]) was “inactive”. For the same compound, the Activity (Fusarium oxysporum [11]) was “Active”, the Activity (Fusarium oxysporum [12]) was “inactive” and the inhibition (Mucor mucedo [13]) was “inactive”. The Activity (Mucor mucedo [14]) was “Active”, the inhibition at 0.13 µM (Mucor mucedo [15]) was 84% and the Activity (Mucor mucedo [16]) was “Active”. The Activity (Saccharomyces cerevisiae) was “inactive”, the Activity (Fusarium oxysporum [17]) was “Active” and the Activity (Mucor mucedo [18]) was “inactive”. For the same compound, the Activity (Mucor mucedo [19]) was “Active”, the Activity (Mucor mucedo [20]) was “Active” and the Activity (Mucor mucedo [21]) was “inactive”. For the same compound, the Activity (Micrococcus luteus) was “inactive”, the MIC (Mucor mucedo [22]) was 0.013 µM and the Activity (Pseudomonas aeruginosa) was “inactive”. The inhibition (Mucor mucedo [23]) was “inactive”, the MIC (Fusarium solani [24]) was 0.25 mg/L (≈ 0.164 µM) and the MIC (Fusarium graminearum [25]) was 0.063 mg/L (≈ 0.0412 µM). For the same compound, the Activity [26] was “Active”, the Activity (Aspergillus nidulans) was “inactive” and the Activity (Mucor javanicus) was “inactive”. For the same compound, the Activity (Rhodotorula mucilaginosa) was “inactive”, the Activity (Fusarium solani [27]) was “inactive” and the Activity (HL-60) was “Non-toxic”. The Activity (Escherichia coli) was “inactive”, the Activity (Proteus vulgaris) was “inactive” and the Activity (Mucor mucedo [28]) was “inactive”.
